PMC3021320 (FEBS letters, 2010)
pIC50: −log10 of the molar value.

Target: T1, Janus kinase 3 (JAK3) (Homo sapiens, UniProt P52333)
T1 sequence (P52333 1-1124): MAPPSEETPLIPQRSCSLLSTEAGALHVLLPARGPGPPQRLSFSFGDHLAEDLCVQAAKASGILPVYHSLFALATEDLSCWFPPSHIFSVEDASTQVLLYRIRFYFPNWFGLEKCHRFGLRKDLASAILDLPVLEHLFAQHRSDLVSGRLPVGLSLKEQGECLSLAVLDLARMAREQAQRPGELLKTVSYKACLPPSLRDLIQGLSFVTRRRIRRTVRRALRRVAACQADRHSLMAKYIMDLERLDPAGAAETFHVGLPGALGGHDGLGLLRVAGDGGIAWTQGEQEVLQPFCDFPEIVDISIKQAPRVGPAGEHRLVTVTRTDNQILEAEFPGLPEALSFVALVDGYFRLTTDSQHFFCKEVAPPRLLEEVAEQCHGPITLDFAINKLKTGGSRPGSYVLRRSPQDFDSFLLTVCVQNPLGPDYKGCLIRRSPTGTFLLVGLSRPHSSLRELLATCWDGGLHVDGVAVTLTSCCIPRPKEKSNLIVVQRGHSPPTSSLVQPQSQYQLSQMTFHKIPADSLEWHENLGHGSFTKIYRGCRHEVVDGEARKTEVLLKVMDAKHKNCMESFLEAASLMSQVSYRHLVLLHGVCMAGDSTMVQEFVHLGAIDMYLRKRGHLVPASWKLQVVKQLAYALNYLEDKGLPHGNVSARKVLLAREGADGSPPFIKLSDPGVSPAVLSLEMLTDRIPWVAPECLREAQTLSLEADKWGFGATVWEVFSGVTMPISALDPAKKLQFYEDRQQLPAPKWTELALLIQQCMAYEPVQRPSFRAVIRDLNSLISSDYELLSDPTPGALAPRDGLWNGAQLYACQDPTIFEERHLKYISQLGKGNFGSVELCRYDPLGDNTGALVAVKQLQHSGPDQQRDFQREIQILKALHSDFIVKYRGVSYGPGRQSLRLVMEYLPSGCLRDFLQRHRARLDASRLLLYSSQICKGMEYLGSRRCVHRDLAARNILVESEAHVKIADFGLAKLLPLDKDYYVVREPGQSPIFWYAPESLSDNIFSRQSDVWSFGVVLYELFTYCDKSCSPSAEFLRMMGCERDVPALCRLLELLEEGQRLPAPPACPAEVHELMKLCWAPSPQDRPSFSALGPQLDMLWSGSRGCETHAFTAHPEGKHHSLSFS
Experiment: kinase assay
Type: cell-based

Work on `O=c1cc(-c2ccc(O)cc2)oc2cc(O)cc(O)c12` [apigenin] yielded a pIC50 of 8.89.
